{
  "source": "patent US20220133738A1",
  "about": "“GENOTYPE AND DOSE-DEPENDENT RESPONSE TO AN ASBTI IN PATIENTS WITH BILE SALT EXPORT PUMP DEFICIENCY” (MIRUM PHARMACEUTICALS, INC., priority 2019, published 2022)",
  "key": {"[1]": {"test_system": "children with Alagille syndrome (ALGS)", "assay": "ICONIC phase 2b randomized placebo-controlled drug-withdrawal study with long-term extension of maralixibat in Alagille syndrome", "protocol": "Children aged 1-18 years with a diagnosis of ALGS and evidence of cholestasis were eligible to enroll in the ICONIC clinical study, see Tables 12-14. During a long-term extension, participants with sBA levels above the upper limit of normal and/or an ITCHRO(OBS) score >1.5 were eligible for the 400 μg/kg BID dose (all participants received the 400 μg/kg BID dose). Inclusion criteria for the ICONIC study included having cholestasis, which was defined as at least one of 1) sBA concentration (total sBA) >3× the upper limit of normal, 2) serum conjugated bilirubin concentration >1 mg/dL, 3) fat-soluble vitamin deficiency not otherwise explained, 4) serum gamma-glutamyl transferase concentration >3× the upper limit of normal, and 3) intractable pruritus explainable only by liver disease. Inclusion criteria also included having significant pruritus, which was defined as an average daily score of >2 on the ITCHRO(OBS) scale for 2 consecutive weeks (0=no pruritus; 4=most severe pruritus). Exclusion criteria included having surgically disrupted enterohepatic circulation, a liver transplant, decompensated cirrhosis, or having any liver disease other than ALGS.\nsBA responders were defined as those patients achieving ≥50% reduction from baseline in sBA at week 12 or 18. ITCHRO responders were defined as those patients achieving at least a 1-point reduction from Baseline in weekly morning ITCHRO(OBS) score at week 12 or 18.\nIn the open label extension, the effect of higher doses was explored by increasing dosage to a maximum of 400 μg/kg BID in eligible participants.\nEfficacy assessments were based on changes from baseline in sBA concentration, weekly average ITCHRO(OBS) scores (0, none; 4, most severe), CSS score (0, none; 4 most severe), and Clinician Xanthoma Scale score (0, none; 4, disabling). […] During the long-term extension, efficacy assessments were conducted every 12 weeks.\nsBA were measured using a fully validated liquid chromatography-electrospray ionization-mass electrospray (LC-ESI-MS) method using stable-isotope dilution analysis to measure serum concentrations of principal bile acids (cholic, chenodeoxycholic, ursodeoxycholic, deoxycholic acid, lithocholic, and their corresponding glycine and taurine conjugates). […] Calibration standards of individual bile acids were in the range of 50-25,000 ng/mL and Quality Control samples were prepared at concentrations of 100, 500, 1000, 2500, and 20000 ng/mL. The intra- and inter-assay imprecision of the method for individual bile acids measured was within the accepted GLP quality assurance guidelines of <15% coefficient of variance for these QC samples. The lower limit of quantification of the assay was set at 100 ng/mL and the imprecision at this concentration was <20%. The limit of detection of the assay was 5 ng/mL. Total sBA is represented by the sum of the individual bile acid species measured."}, "[2]": {"test_system": "children with progressive familial intrahepatic cholestasis (PFIC)", "assay": "INDIGO phase 2 open-label efficacy and safety study of maralixibat in children with PFIC", "format": "in vivo, human", "from_the_text": "The HRQoL used was the […] QUALITY OF LIFE INVENTORY (PedsQL)."}, "[3]": {"test_system": "children with progressive familial intrahepatic cholestasis (PFIC)", "assay": "INDIGO phase 2 open-label efficacy and safety study of maralixibat in children with PFIC", "format": "in vivo, human", "remark": "listed apart in the source"}, "[4]": {"test_system": "adults with primary sclerosing cholangitis (PSC)", "assay": "CAMEO 14-week single-arm open-label phase 2a study of maralixibat in primary sclerosing cholangitis", "format": "in vivo, human", "procedure": "Participants were adults aged 18-80 years with a diagnosis of PSC. PSC diagnosis included a documented history of alkaline phosphatase (ALP) levels greater than 1.5 times above the upper limit of normal, biliary obstruction, and histological findings consistent with PSC diagnosis (if previously biopsied). The study enrolled 27 adults.\nEfficacy was assessed by measuring at baseline and throughout the study sBA concentration, serum 7αC4 concentration (a marker of de novo bile acid synthesis), serum aoutotaxin concentration, LDL-C concentration, serum total cholesterol concentration, serum liver enzyme concentrations, and pruritus severity. Pruritus severity was determined by calculating Adult Itch Reported Outcome (ITCHRO) weekly sum scores and average daily scores (mean score over a 7-day period). Participants self-reported the ITCHRO daily on a scale 0-10 (0=no pruritus; 10=most severe pruritus).\nOutcomes were assessed in the overall study population and in subgroups of participants (A) with any pruritus at baseline or (B) with an ITCHRO average daily score ≥4 out of 10 at baseline. Efficacy endpoints were based on change from baseline to week 14 or early termination (ET) and were analyzed using paired t-tests or Wilcoxon signed rank tests."}, "[5]": {"conditions": "individual participants A-F with ITCHRO daily score ≥4 at baseline, one line per participant"}, "[6]": {"conditions": "participants with ITCHRO daily score ≥4 at baseline"}},
  "note": "“And” between values parts separate entries of the source, which are not always exact repeats. Identical values can stand only once.",
  "data": [
    {"smiles": "CCCCC1(CCCC)CS(=O)(=O)c2ccc(N(C)C)cc2[C@@H](c2ccc(OCc3ccc(C[N+]45CCN(CC4)CC5)cc3)cc2)[C@H]1O", "note": "[maralixibat]", "values": [
      {"measurement": "ItchRO(Obs) Weekly Morning Average Score, Week 48 Average Score", "setting": "[1]; sBA ≥90% Reduction", "result": 0.00},
      {"measurement": "participants meeting sBA Response Definition, Week 48 (N = 28), %", "setting": "[1]; sBA ≥90% Reduction", "result": "(3.6%)"},
      {"measurement": "ItchRO(Obs) Weekly Morning Average Score, Average Change from Baseline", "setting": "[1]; sBA ≥90% Reduction, week 48", "result": "−2.71"},
      {"measurement": "CSS final average score", "setting": "[1]; week 48, all participants", "result": "about 1.5"},
      {"measurement": "Multi-parameter Responders (n/N)", "setting": "[2]; Mild PFIC 2 (N = 7)", "result": "1/7"},
      {"measurement": "Multi-parameter Responders (n/N)", "setting": "[2]; Moderate PFIC 2 (N = 12)", "result": "6/12"},
      {"measurement": "Multi-parameter Responders (%)", "setting": "[2]; Non-truncating BSEP (N = 19)", "result": "(36.8%)"},
      {"measurement": "Multi-parameter Responders (n/N)", "setting": "[2]; Non-truncating BSEP (N = 19), response = >70% reduction or normalization in sBA and >1.0 reduction or <1.0 ITCHRO(OBS)", "result": "7/19"},
      {"measurement": "Multi-parameter Responders (n/N)", "setting": "[2]; Truncating BSEP (N = 6)", "result": "0/6"},
      {"measurement": "7αC4:sBA ratio", "setting": "[2]; high-dose responder, prior to administration of 560 μg/kg/day", "result": 12, "unit": "times baseline"},
      {"measurement": "Response (observed response)", "setting": "[2]; individual PFIC 2 participants, one line per Subject ID of Table 3, (No reponse [sic] / Rapid complete response / Good response), max dose 280 or 560 μg/kg/day", "result": "Rapid (4×) and No (18×) and Good"},
      {"measurement": "7αC4:sBA ratio, mean change from baseline at week 48", "setting": "[2]; low-dose responders (range, 5-3982)", "result": 1388, "unit": "times baseline ratio"},
      {"measurement": "7αC4 concentrations at 48 weeks relative to baseline", "setting": "[2]; non-responders (range, 0.5-6)", "result": 1.8, "unit": "× baseline"},
      {"measurement": "responders in long-term extension", "setting": "[2]; patients having an ABCB11 gene with a truncating mutation", "result": "no patients"},
      {"measurement": "patients with ≥1.0 pt. reduction in ITCHRO(OBS) score", "setting": "[2]; patients with non-truncating BSEP mutations, FIG. 6", "result": "10/19"},
      {"measurement": "sBA levels Normalized (±≤8.5 μmol/L), n", "setting": "[2]; responders (n = 6) by week 48", "result": 4},
      {"measurement": "Response", "setting": "[2]; subject 016054, moderate PFIC 2, wrapped cell r43-r46 reads 'No response until 560 reached'", "result": "No"},
      {"measurement": "PedsQL total score, change from baseline to week 48, mean", "setting": "[2]; week 48", "result": "+8.2"},
      {"measurement": "multi-parameter responders among mild PFIC 2 patients", "setting": "[3]; 280 μg/kg QD", "result": "1 of 7"},
      {"measurement": "moderate PFIC 2 patients responsive only at the higher dose (high-dose responder)", "setting": "[3]; 280 μg/kg twice daily", "result": "1 of 12"},
      {"measurement": "responders among moderate PFIC 2 patients", "setting": "[3]; 280 μg/kg/day by week 48", "result": "5 of 12"},
      {"measurement": "Multi-parameter Responders (%)", "setting": "[3]; Mild PFIC 2 (N = 7)", "result": "(14.3%)"},
      {"measurement": "Multi-parameter Responders (%)", "setting": "[3]; Moderate PFIC 2 (N = 12)", "result": "(50%)"},
      {"measurement": "Multi-parameter Responders (%)", "setting": "[3]; Truncating BSEP (N = 6)", "result": "(0%)"},
      {"measurement": "multi-parameter response", "setting": "[3]; all PFIC 1 patients and all patients harboring a truncating ABCB11 mutation", "result": "not multi-parameter responders"},
      {"measurement": "increase in C4 levels relative to baseline", "setting": "[3]; all low-dose responders (280 μg/kg/day), within 13 weeks of first administration", "result": "at least 2.5 fold"},
      {"measurement": "serum ALT, AST, and bilirubin concentrations over time", "setting": "[3]; all low-dose responders, within 2-6 months of first administration", "result": "normalized or only mildly elevated"},
      {"measurement": "height Z-score", "setting": "[3]; high dose responder, following treatment response on sBA", "result": "increase in height Z-score"},
      {"measurement": "7αC4:sBA ratio", "setting": "[3]; high-dose responder, upon administration of 560 μg/kg/day", "result": 1770, "unit": "times baseline"},
      {"measurement": "cholestasis markers after dose increase", "setting": "[3]; low-dose responder losing response in long-term extension, raised to 280 μg/kg BID at 640-730 days", "result": "sBA concentration decreased, severity of pruritus decreased, serum 7αC4 concentration increased, and 7αC4:sBA ratio increased"},
      {"measurement": "7αC4 concentrations at 48 weeks relative to baseline", "setting": "[3]; low-dose responders (range, 3-43)", "result": 14, "unit": "× baseline"},
      {"measurement": "growth (height Z-score change from baseline)", "setting": "[3]; low-dose responders, FIG. 4", "result": "improved growth relative to baseline"},
      {"measurement": "7αC4:sBA ratio, mean change from baseline at week 48", "setting": "[3]; non-responders (range, 0.43-12)", "result": 1.9, "unit": "times baseline ratio"},
      {"measurement": "duration of maintained response", "setting": "[3]; responders in the INDIGO study", "result": "for over a year and for up to or beyond 5 years"},
      {"measurement": "Response: reduction in BAs", "setting": "[3]; subject 080051-L, mild PFIC 2", "result": ">70", "unit": "%"},
      {"measurement": "response at the higher dose in prior non-responders", "setting": "[3]; three non-truncating PFIC 2 patients without response at 280 μg/kg/day given 560 μg/kg/day", "result": "one (mentioned above) responded at the higher dose"},
      {"measurement": "ALT, change from baseline to week 48, mean", "setting": "[3]; week 48", "result": "−12", "unit": "UI/L"},
      {"measurement": "C4, change from baseline to week 48, mean", "setting": "[3]; week 48", "result": "+6.0 ng/mL"},
      {"measurement": "ItchRO(Obs) score, change from baseline to week 48, mean", "setting": "[3]; week 48", "result": "−1.0"},
      {"measurement": "Total bilirubin, change from baseline to week 48, mean", "setting": "[3]; week 48", "result": "+0.8 mg/dL"},
      {"measurement": "sBA, change from baseline to week 48, mean", "setting": "[3]; week 48", "result": -32, "unit": "µmol/L"},
      {"measurement": "tolerability", "setting": "[4]; adults with PSC, 14 weeks", "result": "well tolerated"},
      {"measurement": "participants with worsening of pruritus by >1 point", "setting": "[4]; baseline to week 14", "result": "No participants"},
      {"measurement": "Changes in serum total bilirubin, alanine aminotransferase, aspartate aminotransferase, and alkaline phosphatase concentrations", "setting": "[4]; baseline to week 14/ET", "result": "not statistically significant"},
      {"measurement": "ItchRO average daily score (0-10 scale), Change from baseline to week 14/ET", "setting": "[4]; [5]", "result": "−4.6 and −1.7 and −3.7 (2×) and −9.1 and −4.7"},
      {"measurement": "ItchRO average daily score (0-10 scale), Week 14/ET", "setting": "[4]; [5]", "result": "1.3 and 5.1 and 3.1 and 2.3 and 0 (2×)"},
      {"measurement": "Mean conjugated bilirubin levels, increase", "setting": "[4]; overall population", "result": 0.19, "unit": "mg/dL"},
      {"measurement": "total cholesterol, mean change", "setting": "[4]; overall population", "result": -21.2, "unit": "mg/dL"},
      {"measurement": "ITCHRO weekly sum scores, decrease from baseline", "setting": "[4]; overall population, baseline to week 14/ET, 10 mg/day maintenance", "result": 51, "unit": "%"},
      {"measurement": "serum LCL-C concentration, change from baseline", "setting": "[4]; overall population, SD 17.6", "result": -16.3, "unit": "mg/dL"},
      {"measurement": "serum autotaxin concentration, change from baseline", "setting": "[4]; overall population, SD 319", "result": -148, "unit": "ng/mL"},
      {"measurement": "Mean levels of 7αC4, increase from baseline", "setting": "[4]; overall, week 14/ET", "result": 130, "unit": "%"},
      {"measurement": "sBA levels, decrease from baseline", "setting": "[4]; overall, week 14/ET", "result": 38, "unit": "%"},
      {"measurement": "7αC4, mean increase from baseline", "setting": "[4]; overall, week 14/ET, SD 13.6", "result": 11.1, "unit": "ng/mL"},
      {"measurement": "sBA levels, mean change from baseline", "setting": "[4]; overall, week 14/ET, SD 31.4", "result": -14.8, "unit": "µmol/L"},
      {"measurement": "Mean levels of 7αC4, increase from baseline", "setting": "[4]; [6]", "result": 107, "unit": "%"},
      {"measurement": "sBA levels, decrease from baseline", "setting": "[4]; [6]", "result": 45, "unit": "%"},
      {"measurement": "total cholesterol, mean change", "setting": "[4]; [6]", "result": -32.0, "unit": "mg/dL"},
      {"measurement": "ITCHRO weekly sum scores, decrease from baseline", "setting": "[4]; participants with ITCHRO daily score ≥4 out of 10 at baseline (n=6), week 14/ET", "result": 70, "unit": "%"},
      {"measurement": "ITCHRO weekly sum scores, decrease from baseline", "setting": "[4]; participants with any pruritus at baseline (n=18), week 14/ET", "result": 53, "unit": "%"},
      {"measurement": "participants with ITCHRO average daily score improved by >1 point", "setting": "[4]; week 14/ET", "result": 29.6, "unit": "%"},
      {"measurement": "participants with ITCHRO average daily score improved by >3 points", "setting": "[4]; week 14/ET", "result": 22.2, "unit": "%"}
    ]}
  ]
}
